This note sets out measurements from patent US11130679B2, “Biodegradable hollow nanoparticles and methods and apparatus for manufacturing the same” (University of Utah Research Foundation, priority 2018, dated 2021).

A short description of the data set: CCK-8 cytotoxicity in MCF-7 cells. In kind it is cell-based. The following applies: human, MCF-7 breast cancer epithelial cells, MCF-7, 6 μg mL^−1 of DOX. The method, then:
Cytotoxicity of the intact GSH-sensitive HMSiO2 NPs, TEOS HMSiO2 NPs, DOX-loaded GSH-sensitive HMSiO2 NPs, DOX-loaded TEOS HMSiO2 NPs, and free DOX was evaluated in MCF-7 breast cancer epithelial cells. Cells were cultured at 37° C. in 5% CO2 in DMEM with 10% FBS. Then, the cells were stained using Trypan Blue Stain 0.4% and read by Invitrogen Countess™ automated cell counter (Thermo Fisher Scientific Corporation, Grand Island, N.Y., USA). For the cytotoxicity evaluation, cells were seeded onto 96-well plates with the density of 4,000 cells/well and incubated to grow for 48 h. After 48 h, the cells were washed with PBS. Fresh media containing 10% FBS was then added (120 μL) with varying nanoparticle concentrations ranging from 0 to 1,000 μg mL^−1. Wells with media or Triton™ X-100 (without nanoparticles) were used as negative or positive controls, respectively. The cells were then incubated for another 24 and 48 h, the media was aspirated, and the cells were washed twice with PBS. Cell viability was determined using CCK-8 cytotoxicity assay kit according to an established protocol and absorbance was measured at 450 nm with SpectraMax® M2 microplate reader. Assays were performed at least in triplicate.

Structures are written as SMILES. Counter-ions that a name gives are not always drawn.

Consider `COc1cccc2c1C(=O)c1c(O)c3c(c(O)c1C2=O)C[C@@](O)(C(=O)CO)C[C@@H]3O[C@H]1C[C@H](N)[C@H](O)[C@H](C)O1` [free DOX, Doxorubicin hydrochloride salt], for which, for the setting “24 h incubation, read-out: Cell viability reduction (cells killed)”, the cytotoxicity at 24 h, 6 μg mL^−1 is around 64%. The cytotoxicity at 48 h, 6 μg mL^−1 (48 h incubation, read-out: Cell viability reduction) is around 80%.
